For the test, the target named is Bcl-2-related protein A1 (Mus musculus) (UniProt Q07440). The test can be described thus: off-target activity on mouse Bfl-1 – biochemical, set 2, counter-screen for UBC13 polyubiquitination inhibitor project, SAR follow-up (AID 588376). The following applies: Bfl-1 biochemical counterscreen, dose response.

The source made the active and inactive calls. No rule for the calls is given here. Bounds are passed on as bounds.

Chain of Bcl-2-related protein A1 (Mus musculus) (Q07440 whole entry, looked up): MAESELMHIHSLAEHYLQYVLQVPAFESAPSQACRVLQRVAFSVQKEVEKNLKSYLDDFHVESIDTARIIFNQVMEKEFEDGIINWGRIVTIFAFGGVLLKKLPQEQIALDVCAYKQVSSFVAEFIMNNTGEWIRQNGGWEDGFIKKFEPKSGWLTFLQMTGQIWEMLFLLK

As usually defined, the IC50 is the concentration that inhibits the measured activity by half. `O=C(NCCCN1CCN(c2ccccc2)CC1)C1CCCN(c2ncnc3c2nc2n3CCCCC2)C1` (configuration not stated): the IC50 is > 100 µM (inactive).
As for `CCOc1ccccc1NC(=O)CN1CCC(n2cnc3cc(F)ccc32)CC1`, the IC50 was > 100 µM (inactive).
For `COc1ccc(OC)c(NC(=O)CN2CCC(n3cnc4cc(F)ccc43)CC2)c1`, the IC50 was > 100 µM (inactive).
For the molecule `Cc1nc2ccccc2n1C1CCN(CC(=O)Nc2ccccc2Oc2ccccc2)CC1`, the IC50 was > 100 µM (inactive).
Consider `CC1(C)Cc2c(sc(NC(=O)C(=O)NCCN3CCOCC3)c2C(N)=O)CO1`, for which the IC50 is > 100 µM (inactive).
In the case of `O=C(CN1CCC(n2cnc3cc(F)ccc32)CC1)Nc1cccc(C(F)(F)F)c1`, the IC50 was > 100 µM (inactive).
With `Cc1cccc(NC(=O)CN2CCC(n3cnc4cc(F)ccc43)CC2)c1C`, the IC50 was > 100 µM (inactive).
As for `COc1ccccc1N1CCN(CCCNC(=O)C2CCCN(c3ncnc4c3nc3n4CCCCC3)C2)CC1` (configuration not stated), the IC50 was > 100 µM (inactive).
`COC(=O)c1c(NC(=O)C(=O)NCC2CCCO2)sc2c1CC(C)(C)OC2` (configuration not stated): the IC50 was > 100 µM (inactive).
As to `CC1(C)Cc2c(sc(NC(=O)C(=O)N3CCCC3)c2C(N)=O)CO1`, the IC50 was > 100 µM (inactive).
On to `Cc1cccc(N2CCN(CCCNC(=O)C3CCCN(c4ncnc5c4nc4n5CCCCC4)C3)CC2C)c1` (configuration not stated), for which the IC50 is > 100 µM (inactive).
The same measure for `O=C(NCCCN1CCN(c2ccc(F)cc2)CC1)C1CCCN(c2ncnc3c2nc2n3CCCCC2)C1` (configuration not stated): > 100 µM (inactive); for `CC1(C)Cc2c(sc(NC(=O)C(=O)NCC3CCCO3)c2C(=O)O)CO1` (configuration not stated): > 100 µM (inactive); for `Cc1ccc(C)c(N2CCN(CCCNC(=O)C3CCCN(c4ncnc5c4nc4n5CCCCC4)C3)CC2)c1` (configuration not stated): > 100 µM (inactive).
Turning to `COc1ccc(NC(=O)CN2CCC(n3c(C)nc4cc(F)ccc43)CC2)c(OC)c1`, the IC50 is > 100 µM (inactive).
In the case of `O=C(C1CCN(c2ncnc3c2nc2n3CCCCC2)CC1)N1CCN(Cc2ccccc2)CC1`, the IC50 was > 100 µM (inactive).
With `O=C(C1CCN(c2ncnc3c2nc2n3CCCCC2)CC1)N1CCN(c2ncccn2)CC1`, the IC50 is > 100 µM (inactive).
The same measure for `O=C(c1ccco1)N1CCN(C(=O)C2CCN(c3ncnc4c3nc3n4CCCCC3)CC2)CC1`: > 100 µM (inactive).
`COc1ccc(OC)c(NC(=O)CN2CCC(n3c(C)nc4cc(F)ccc43)CC2)c1`: the IC50 is > 100 µM (inactive).
`Cc1nc2cc(F)ccc2n1C1CCN(CC(=O)Nc2ccccc2)CC1`: the IC50 is > 100 µM (inactive).
`CCOc1ccc(NC(=O)CN2CCC(n3cnc4cc(F)ccc43)CC2)cc1`: the IC50 is > 100 µM (inactive).
Turning to `O=C(CN1CCC(n2cnc3cc(C(F)(F)F)ccc32)CC1)Nc1ccc2c(c1)OCCO2`, the IC50 was > 100 µM (inactive).
With `O=C(CN1CCC(n2c(C(F)(F)F)nc3cc(F)ccc32)CC1)Nc1ccc2c(c1)OCO2`, the IC50 is > 100 µM (inactive).
Then `O=C(CN1CCC(n2cnc3cc(F)ccc32)CC1)Nc1ccccc1Br`, with > 100 µM (inactive); and `CC1(C)Cc2c(sc(NC(=O)C(=O)NCC3CCCO3)c2C(N)=O)CO1` (configuration not stated), with > 100 µM (inactive); and `O=C(C1CCN(c2ncnc3c2nc2n3CCCCC2)CC1)N1CCN(c2ccccn2)CC1`, with > 100 µM (inactive).
Take `O=C(C1CCN(c2ncnc3c2nc2n3CCCCC2)CC1)N1CCN(c2ccc(F)cc2)CC1`: the IC50 was > 100 µM (inactive).

Values taken from PubChem BioAssay AID588376 (Sanford-Burnham Center for Chemical Genomics, 2011).
